Assay results published in ChEMBL document CHEMBL4507284, “Data for DCP probe BI-1230” (2021).

Tests used:
[1] = molecular target: Tyrosine-protein kinase Tec (Homo sapiens) (UniProt P42680); settings: Compound concentration 1000.0 nM
[2] = molecular target: Receptor-type tyrosine-protein kinase FLT3 (Homo sapiens) (UniProt P36888); settings: Compound concentration 1000.0 nM
[3] = molecular target: Ribosomal protein S6 kinase alpha-3 (Homo sapiens) (UniProt P51812); settings: Compound concentration 1000.0 nM
[4] = tested on: Phosphatidylinositol 4,5-bisphosphate 3-kinase catalytic subunit alpha isoform (Homo sapiens), P42336 [Q546K]; settings: Compound concentration 1000.0 nM
[5] = molecular target: Tyrosine-protein kinase Yes (Homo sapiens) (UniProt P07947); settings: Compound concentration 1000.0 nM
[6] = tested on: Phosphatidylinositol 4,5-bisphosphate 3-kinase catalytic subunit alpha isoform (Homo sapiens), P42336 [H1047Y]; settings: Compound concentration 1000.0 nM
[7] = molecular target: Tyrosine-protein kinase TXK (Homo sapiens) (UniProt P42681); settings: Compound concentration 1000.0 nM
[8] = molecular target: Serine/threonine-protein kinase ULK2 (Homo sapiens) (UniProt Q8IYT8); settings: Compound concentration 1000.0 nM
[9] = molecular target: 5'-AMP-activated protein kinase catalytic subunit alpha-2 (Homo sapiens) (UniProt P54646); settings: Compound concentration 1000.0 nM
[10] = molecular target: Serine/threonine-protein kinase N1 (Homo sapiens) (UniProt Q16512); settings: Compound concentration 1000.0 nM
[11] = molecular target: Serine/threonine-protein kinase mTOR (Homo sapiens) (UniProt P42345); settings: Compound concentration 1000.0 nM
[12] = molecular target: Activin receptor type-1 (Homo sapiens) (UniProt Q04771); settings: Compound concentration 1000.0 nM
[13] = molecular target: Serine/threonine-protein kinase MAK (Homo sapiens) (UniProt P20794); settings: Compound concentration 1000.0 nM
[14] = molecular target: Mitogen-activated protein kinase kinase kinase 12 (Homo sapiens) (UniProt Q12852); settings: Compound concentration 1000.0 nM
[15] = molecular target: RAC-beta serine/threonine-protein kinase (Homo sapiens) (UniProt P31751); settings: Compound concentration 1000.0 nM
[16] = molecular target: Calcium/calmodulin-dependent protein kinase type 1D (Homo sapiens) (UniProt Q8IU85); settings: Compound concentration 1000.0 nM
[17] = molecular target: Tyrosine-protein kinase JAK3 (Homo sapiens) (UniProt P52333); settings: Compound concentration 1000.0 nM
[18] = molecular target: 5-hydroxytryptamine receptor 1D (Homo sapiens) (UniProt P28221); settings: Compound concentration 10.0 uM
[19] = molecular target: Mitogen-activated protein kinase 1 (Homo sapiens) (UniProt P28482); settings: Compound concentration 1000.0 nM
[20] = molecular target: MAP kinase-activated protein kinase 2 (Homo sapiens) (UniProt P49137); settings: Compound concentration 1000.0 nM
[21] = molecular target: TGF-beta receptor type-1 (Homo sapiens) (UniProt P36897); settings: Compound concentration 1000.0 nM
[22] = molecular target: Atypical kinase COQ8B, mitochondrial (Homo sapiens) (UniProt Q96D53); settings: Compound concentration 1000.0 nM
[23] = tested on: Receptor-type tyrosine-protein kinase FLT3 (Homo sapiens), P36888 [UNDEFINED MUTATION]; settings: Compound concentration 1000.0 nM
[24] = molecular target: Casein kinase I isoform alpha (Homo sapiens) (UniProt P48729); settings: Compound concentration 1000.0 nM
[25] = molecular target: Myosin light chain kinase 2, skeletal/cardiac muscle (Homo sapiens) (UniProt Q9H1R3); settings: Compound concentration 1000.0 nM
[26] = molecular target: MAP kinase-interacting serine/threonine-protein kinase 1 (Homo sapiens) (UniProt Q9BUB5); settings: Compound concentration 1000.0 nM
[27] = molecular target: Serine/threonine-protein kinase NLK (Homo sapiens) (UniProt Q9UBE8); settings: Compound concentration 1000.0 nM
[28] = molecular target: Eukaryotic translation initiation factor 2-alpha kinase 1 (Homo sapiens) (UniProt Q9BQI3); settings: Compound concentration 1000.0 nM
[29] = molecular target: RAC-alpha serine/threonine-protein kinase (Homo sapiens) (UniProt P31749); settings: Compound concentration 1000.0 nM
[30] = tested on: Receptor-type tyrosine-protein kinase FLT3 (Homo sapiens), P36888 [D835V]; settings: Compound concentration 1000.0 nM
[31] = molecular target: Tyrosine-protein kinase SYK (Homo sapiens) (UniProt P43405); settings: Compound concentration 1000.0 nM
[32] = molecular target: Tyrosine-protein kinase Fer (Homo sapiens) (UniProt P16591); settings: Compound concentration 1000.0 nM
[33] = molecular target: Serine/threonine-protein kinase RIO3 (Homo sapiens) (UniProt O14730); settings: Compound concentration 1000.0 nM
[34] = molecular target: Mitogen-activated protein kinase 13 (Homo sapiens) (UniProt O15264); settings: Compound concentration 1000.0 nM
[35] = molecular target: Serine/threonine-protein kinase LATS1 (Homo sapiens) (UniProt O95835); settings: Compound concentration 1000.0 nM
[36] = molecular target: Testis-specific serine/threonine-protein kinase 3 (Homo sapiens) (UniProt Q96PN8); settings: Compound concentration 1000.0 nM
[37] = tested on: Mast/stem cell growth factor receptor Kit (Homo sapiens), P10721 [V559D]; settings: Compound concentration 1000.0 nM
[38] = molecular target: G protein-coupled receptor kinase 3 (Homo sapiens) (UniProt P35626); settings: Compound concentration 1000.0 nM
[39] = molecular target: Mitogen-activated protein kinase kinase kinase kinase 3 (Homo sapiens) (UniProt Q8IVH8); settings: Compound concentration 1000.0 nM
[40] = molecular target: Cyclin-G-associated kinase (Homo sapiens) (UniProt O14976); settings: Compound concentration 1000.0 nM
[41] = molecular target: Mitogen-activated protein kinase 10 (Homo sapiens) (UniProt P53779); settings: Compound concentration 1000.0 nM
[42] = tested on: Receptor-type tyrosine-protein kinase FLT3 (Homo sapiens), P36888 [R834Q]; settings: Compound concentration 1000.0 nM
[43] = tested on: Epidermal growth factor receptor (Homo sapiens), P00533 [UNDEFINED MUTATION]; settings: Compound concentration 1000.0 nM
[44] = molecular target: Ephrin type-A receptor 1 (Homo sapiens) (UniProt P21709); settings: Compound concentration 1000.0 nM

Chain of Serine/threonine-protein kinase RIO3 (Homo sapiens) (O14730 whole entry): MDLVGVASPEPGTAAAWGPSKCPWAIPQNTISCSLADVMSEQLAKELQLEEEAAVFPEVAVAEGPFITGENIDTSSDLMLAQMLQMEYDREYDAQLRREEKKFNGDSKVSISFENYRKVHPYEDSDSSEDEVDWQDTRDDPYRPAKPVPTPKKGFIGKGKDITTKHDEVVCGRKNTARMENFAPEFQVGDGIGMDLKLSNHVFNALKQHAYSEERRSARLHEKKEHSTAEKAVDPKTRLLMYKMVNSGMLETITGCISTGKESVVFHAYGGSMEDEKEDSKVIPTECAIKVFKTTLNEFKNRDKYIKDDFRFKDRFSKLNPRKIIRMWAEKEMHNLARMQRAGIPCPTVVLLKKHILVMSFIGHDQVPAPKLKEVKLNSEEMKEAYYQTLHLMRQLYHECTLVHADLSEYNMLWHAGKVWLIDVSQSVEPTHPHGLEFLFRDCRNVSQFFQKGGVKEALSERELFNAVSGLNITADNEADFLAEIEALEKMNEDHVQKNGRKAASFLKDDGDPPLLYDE
Chain of 5-hydroxytryptamine receptor 1D (Homo sapiens) (P28221 whole entry): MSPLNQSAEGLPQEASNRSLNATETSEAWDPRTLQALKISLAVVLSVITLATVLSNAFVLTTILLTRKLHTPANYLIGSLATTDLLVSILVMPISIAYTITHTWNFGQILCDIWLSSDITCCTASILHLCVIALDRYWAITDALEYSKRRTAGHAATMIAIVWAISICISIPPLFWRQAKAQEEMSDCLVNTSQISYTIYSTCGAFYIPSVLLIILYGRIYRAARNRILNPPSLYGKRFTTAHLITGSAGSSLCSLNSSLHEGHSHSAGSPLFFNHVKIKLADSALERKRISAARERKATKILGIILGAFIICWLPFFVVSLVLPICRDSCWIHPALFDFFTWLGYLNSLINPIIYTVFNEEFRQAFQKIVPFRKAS
Chain of Cyclin-G-associated kinase (Homo sapiens) (O14976 whole entry): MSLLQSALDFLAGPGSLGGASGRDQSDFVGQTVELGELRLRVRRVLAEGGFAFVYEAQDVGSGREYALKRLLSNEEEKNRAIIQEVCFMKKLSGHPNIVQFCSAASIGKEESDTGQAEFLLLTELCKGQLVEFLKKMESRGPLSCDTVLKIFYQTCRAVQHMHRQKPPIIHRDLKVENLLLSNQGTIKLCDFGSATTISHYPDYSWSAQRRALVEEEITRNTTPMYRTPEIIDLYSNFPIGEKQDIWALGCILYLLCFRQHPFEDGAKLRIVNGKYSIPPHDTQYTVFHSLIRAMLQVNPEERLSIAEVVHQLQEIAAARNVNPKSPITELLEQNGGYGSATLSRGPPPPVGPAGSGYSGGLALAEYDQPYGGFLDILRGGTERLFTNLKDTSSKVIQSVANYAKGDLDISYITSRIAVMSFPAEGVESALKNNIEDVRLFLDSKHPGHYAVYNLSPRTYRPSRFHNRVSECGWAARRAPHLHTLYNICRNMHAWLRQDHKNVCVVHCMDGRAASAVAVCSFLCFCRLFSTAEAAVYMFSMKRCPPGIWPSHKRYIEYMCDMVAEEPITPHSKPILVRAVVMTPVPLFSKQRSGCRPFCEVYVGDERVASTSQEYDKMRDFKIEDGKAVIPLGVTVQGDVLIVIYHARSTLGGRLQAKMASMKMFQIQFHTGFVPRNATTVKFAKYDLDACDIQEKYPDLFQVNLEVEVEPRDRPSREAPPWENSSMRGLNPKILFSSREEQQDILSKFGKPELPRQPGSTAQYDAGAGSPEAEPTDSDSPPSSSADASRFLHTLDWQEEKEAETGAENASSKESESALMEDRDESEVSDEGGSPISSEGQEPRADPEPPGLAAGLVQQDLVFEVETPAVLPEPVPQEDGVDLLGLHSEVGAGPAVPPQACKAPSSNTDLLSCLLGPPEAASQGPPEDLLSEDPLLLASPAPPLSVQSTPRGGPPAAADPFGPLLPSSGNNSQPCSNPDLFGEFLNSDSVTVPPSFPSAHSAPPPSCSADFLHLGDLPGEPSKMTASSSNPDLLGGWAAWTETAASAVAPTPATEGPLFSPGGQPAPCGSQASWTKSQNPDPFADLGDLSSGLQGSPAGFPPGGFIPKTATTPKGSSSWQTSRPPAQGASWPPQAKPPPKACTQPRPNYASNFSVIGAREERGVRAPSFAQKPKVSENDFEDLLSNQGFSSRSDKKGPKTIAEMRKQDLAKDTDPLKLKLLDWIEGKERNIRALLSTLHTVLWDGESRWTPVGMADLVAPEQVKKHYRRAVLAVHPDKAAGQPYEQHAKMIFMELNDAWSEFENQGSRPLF
Chain of Epidermal growth factor receptor (Homo sapiens), P00533 [UNDEFINED MUTATION] (P00533 whole entry, looked up, change not shown): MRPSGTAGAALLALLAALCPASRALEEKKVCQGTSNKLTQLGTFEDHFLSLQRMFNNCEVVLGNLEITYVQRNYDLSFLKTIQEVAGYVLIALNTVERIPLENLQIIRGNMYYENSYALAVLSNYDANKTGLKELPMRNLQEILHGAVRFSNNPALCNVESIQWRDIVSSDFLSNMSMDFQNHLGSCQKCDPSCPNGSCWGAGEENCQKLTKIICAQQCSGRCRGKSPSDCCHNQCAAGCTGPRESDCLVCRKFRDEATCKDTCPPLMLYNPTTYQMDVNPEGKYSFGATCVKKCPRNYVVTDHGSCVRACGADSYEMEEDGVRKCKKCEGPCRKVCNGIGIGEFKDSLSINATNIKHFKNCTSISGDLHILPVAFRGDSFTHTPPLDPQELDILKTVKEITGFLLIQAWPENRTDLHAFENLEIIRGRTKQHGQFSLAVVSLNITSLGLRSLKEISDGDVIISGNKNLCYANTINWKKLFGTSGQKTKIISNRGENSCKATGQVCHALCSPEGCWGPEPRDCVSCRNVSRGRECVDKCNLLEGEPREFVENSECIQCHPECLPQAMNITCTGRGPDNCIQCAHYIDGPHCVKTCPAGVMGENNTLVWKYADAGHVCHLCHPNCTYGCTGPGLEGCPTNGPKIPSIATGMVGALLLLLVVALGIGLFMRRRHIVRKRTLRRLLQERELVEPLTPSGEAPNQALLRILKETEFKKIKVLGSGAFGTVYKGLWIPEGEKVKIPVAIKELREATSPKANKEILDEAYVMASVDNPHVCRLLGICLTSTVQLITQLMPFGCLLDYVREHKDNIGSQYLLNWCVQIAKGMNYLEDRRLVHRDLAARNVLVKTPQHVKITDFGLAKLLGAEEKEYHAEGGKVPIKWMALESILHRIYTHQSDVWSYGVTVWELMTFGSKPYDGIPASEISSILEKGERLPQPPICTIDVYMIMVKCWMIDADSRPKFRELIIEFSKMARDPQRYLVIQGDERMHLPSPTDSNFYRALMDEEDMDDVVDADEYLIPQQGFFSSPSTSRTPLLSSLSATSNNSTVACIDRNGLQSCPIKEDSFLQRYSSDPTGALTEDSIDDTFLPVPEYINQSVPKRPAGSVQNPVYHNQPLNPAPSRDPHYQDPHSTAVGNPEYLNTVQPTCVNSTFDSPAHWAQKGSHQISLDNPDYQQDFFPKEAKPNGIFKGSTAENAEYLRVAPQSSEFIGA
Chain of Mast/stem cell growth factor receptor Kit (Homo sapiens), P10721 [V559D] (P10721 whole entry V559D): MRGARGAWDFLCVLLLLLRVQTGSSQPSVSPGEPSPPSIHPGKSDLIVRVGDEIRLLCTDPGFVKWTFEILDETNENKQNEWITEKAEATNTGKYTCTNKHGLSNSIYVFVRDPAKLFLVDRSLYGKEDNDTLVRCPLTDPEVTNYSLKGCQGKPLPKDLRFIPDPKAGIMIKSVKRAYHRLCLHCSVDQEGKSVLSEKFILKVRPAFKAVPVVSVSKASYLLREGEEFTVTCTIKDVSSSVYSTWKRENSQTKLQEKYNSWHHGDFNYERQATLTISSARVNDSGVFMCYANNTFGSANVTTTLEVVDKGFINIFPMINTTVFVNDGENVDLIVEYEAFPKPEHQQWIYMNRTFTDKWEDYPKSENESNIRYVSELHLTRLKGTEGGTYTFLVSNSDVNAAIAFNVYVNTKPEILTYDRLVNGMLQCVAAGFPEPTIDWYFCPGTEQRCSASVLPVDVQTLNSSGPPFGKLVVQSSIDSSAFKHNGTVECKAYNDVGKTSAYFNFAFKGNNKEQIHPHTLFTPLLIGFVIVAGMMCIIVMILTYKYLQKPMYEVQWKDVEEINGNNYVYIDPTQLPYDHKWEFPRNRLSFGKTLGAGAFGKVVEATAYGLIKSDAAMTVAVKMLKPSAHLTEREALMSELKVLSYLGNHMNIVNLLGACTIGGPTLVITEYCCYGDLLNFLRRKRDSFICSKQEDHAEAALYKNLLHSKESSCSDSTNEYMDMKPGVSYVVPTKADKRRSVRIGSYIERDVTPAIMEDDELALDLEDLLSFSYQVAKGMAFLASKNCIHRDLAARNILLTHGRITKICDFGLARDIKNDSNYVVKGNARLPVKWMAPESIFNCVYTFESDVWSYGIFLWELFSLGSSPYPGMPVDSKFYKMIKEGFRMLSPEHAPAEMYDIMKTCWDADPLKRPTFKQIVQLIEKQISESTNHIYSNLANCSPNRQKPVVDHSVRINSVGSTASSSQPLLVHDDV
Chain of Serine/threonine-protein kinase NLK (Homo sapiens) (Q9UBE8 whole entry): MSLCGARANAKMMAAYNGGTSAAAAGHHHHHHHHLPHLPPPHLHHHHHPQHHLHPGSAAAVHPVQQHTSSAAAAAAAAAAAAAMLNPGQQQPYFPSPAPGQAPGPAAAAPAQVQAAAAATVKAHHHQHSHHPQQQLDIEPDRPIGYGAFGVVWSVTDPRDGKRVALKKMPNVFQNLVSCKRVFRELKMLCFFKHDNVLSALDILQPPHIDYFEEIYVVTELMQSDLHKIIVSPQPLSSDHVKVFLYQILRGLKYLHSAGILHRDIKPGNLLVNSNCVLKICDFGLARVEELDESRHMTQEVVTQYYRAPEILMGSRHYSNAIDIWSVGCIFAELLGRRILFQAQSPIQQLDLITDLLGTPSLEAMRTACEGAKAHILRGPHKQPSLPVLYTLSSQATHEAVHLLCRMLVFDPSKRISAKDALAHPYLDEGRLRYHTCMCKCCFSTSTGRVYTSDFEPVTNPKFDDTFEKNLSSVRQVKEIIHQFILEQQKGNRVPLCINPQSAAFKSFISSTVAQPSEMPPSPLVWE

For `COc1ccc2c(O[C@@H]3C[C@H]4C(=O)N[C@]5(C(=O)O)CC5/C=C\CCCCC[C@H](NC(=O)OC5CCCC5)C(=O)N4C3)cc(-c3csc(NC(=O)C(C)C)n3)nc2c1C` (stereo partly drawn) [BI 1230], the residual activity [1] was 100%, the residual activity [2] was 88% and the residual activity [3] was 82%. The residual activity [4] was 70%, the residual activity [5] was 100% and the residual activity [6] was 100%. For the same molecule, the residual activity [7] was 86%, the residual activity [8] was 95% and the residual activity [9] was 87%. For the same molecule, the residual activity [10] was 100%, the residual activity [11] was 100% and the residual activity [12] was 100%. The residual activity [13] was 100%, the residual activity [14] was 92% and the residual activity [15] was 89%. The residual activity [16] was 100%, the residual activity [17] was 88% and the inhibition [18] was 32.5%. For the same molecule, the residual activity [19] was 89%, the residual activity [20] was 60% and the residual activity [21] was 100%. It also gave a residual activity [22] of 100%, a residual activity [23] of 80% and a residual activity [24] of 68%. For the same molecule, the residual activity [25] was 100%, the residual activity [26] was 79% and the residual activity [27] was 99%. It also gave a residual activity [28] of 96%, a residual activity [29] of 100% and a residual activity [30] of 79%. For the same molecule, the residual activity [31] was 100%, the residual activity [32] was 100% and the residual activity [33] was 100%. It also gave a residual activity [34] of 100%, a residual activity [35] of 100% and a residual activity [36] of 80%. It also gave a residual activity [37] of 91%, a residual activity [38] of 99% and a residual activity [39] of 100%. The residual activity [40] was 95%, the residual activity [41] was 71% and the residual activity [42] was 92%. It also gave a residual activity [43] of 62% and a residual activity [44] of 88%.

For `O=C(N[C@H]1CCCCC/C=C\C2C[C@@]2(C(=O)O)NC(=O)[C@@H]2C[C@@H](Oc3ccncc3)CN2C1=O)OC1CCCC1` (stereo partly drawn) [BI 1675], the residual activity [1] was 100%, the residual activity [2] was 93% and the residual activity [3] was 89%. The residual activity [4] was 98%, the residual activity [5] was 100% and the residual activity [6] was 100%. It also gave a residual activity [7] of 87%, a residual activity [8] of 100% and a residual activity [9] of 71%. The residual activity [10] was 100%, the residual activity [11] was 100% and the residual activity [12] was 100%. It also gave a residual activity [13] of 82%, a residual activity [14] of 100% and a residual activity [15] of 85%. It also gave a residual activity [16] of 94%, a residual activity [17] of 100% and an inhibition [18] of 3.22%. It also gave a residual activity [19] of 72%, a residual activity [20] of 89% and a residual activity [21] of 100%. For the same molecule, the residual activity [22] was 100%, the residual activity [23] was 88% and the residual activity [24] was 80%. It also gave a residual activity [25] of 100%, a residual activity [26] of 79% and a residual activity [27] of 100%. It also gave a residual activity [28] of 100%, a residual activity [29] of 100% and a residual activity [30] of 92%. For the same molecule, the residual activity [31] was 100%, the residual activity [32] was 100% and the residual activity [33] was 100%. For the same molecule, the residual activity [34] was 96%, the residual activity [35] was 99% and the residual activity [36] was 100%. For the same molecule, the residual activity [37] was 89%, the residual activity [38] was 100% and the residual activity [39] was 100%. It also gave a residual activity [40] of 90%, a residual activity [41] of 81% and a residual activity [42] of 93%. It also gave a residual activity [43] of 49% and a residual activity [44] of 90%.
